In ChEMBL document CHEMBL1201862, “PubChem BioAssay data set” (2004):
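Dose response: 5 concentrations. Exposure: 48 h. Format: 96-well plates. Endpoint: linear interpolation; highest concentration if not reached. Abbreviation: GI50, concentration required for 50% inhibition of growth.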 The source made the active and inactive calls. Rule as the data show it: active = GI50 up to about 1.1 µM and inactive = higher.

Legend:
Test in all cases: growth of human tumour cells (NCI), 48 h
A549 = tested on: A549
SNB-75 = tested on: SNB-75
CCRF-CEM = tested on: CCRF-CEM
SF-295 = tested on: SF-295
TK-10 = tested on: TK-10
M14 = tested on: M14
SN12C = tested on: SN12C
HL-60 = tested on: HL-60
SK-MEL-2 = tested on: SK-MEL-2
786-0 = tested on: 786-0
SF-539 = tested on: SF-539
A498 = tested on: A498
K562 = tested on: K562
NCI-H522 = tested on: NCI-H522

Measured: GI50

O=C(CC1SC(Nc2ccccc2Cl)=NC1=O)Nc1ccc(Cl)cc1Cl (stereo not drawn)
inactive: A549 > 100 µM | SNB-75 > 100 µM | CCRF-CEM > 100 µM | SF-295 > 100 µM | TK-10 > 100 µM | M14 > 100 µM | SN12C > 100 µM | HL-60 > 100 µM | SK-MEL-2 81.1 µM | 786-0 > 100 µM

CN1N=C(Nc2ccccc2)Sc2c1cnn(-c1ccccc1)c2=O
inactive: A549 > 100 µM | CCRF-CEM > 100 µM | SF-295 73.3 µM | TK-10 > 100 µM | M14 > 100 µM | SN12C > 100 µM | HL-60 85.7 µM | SF-539 > 100 µM | A498 > 100 µM | SK-MEL-2 > 100 µM | K562 30.6 µM | 786-0 > 100 µM

Cc1ccccc1C(=O)Oc1ccc(Oc2ccccc2)cc1
inactive: A549 > 100 µM | SNB-75 > 100 µM | CCRF-CEM 42.7 µM | SF-295 > 100 µM | TK-10 78.2 µM | M14 > 100 µM | SN12C > 100 µM | HL-60 18.2 µM | SF-539 > 100 µM | A498 77.6 µM | SK-MEL-2 > 100 µM | K562 > 100 µM | 786-0 > 100 µM

CCOC(=O)Cc1nc2ccc3c(c2nc1O)C(=O)c1ccccc1C3=O
inactive: A549 34.4 µM | SNB-75 62.7 µM | CCRF-CEM 1.95 µM | TK-10 31.7 µM | M14 77.3 µM | SN12C 23.7 µM | SF-539 76.4 µM | NCI-H522 16.8 µM | A498 28.4 µM | SK-MEL-2 76.4 µM | K562 32.4 µM | 786-0 65.6 µM

Cc1cnc[nH]c1=O
inactive: A549 > 100 µM | SNB-75 > 100 µM | CCRF-CEM > 100 µM | SF-295 > 100 µM | TK-10 > 100 µM | M14 > 100 µM | SN12C > 100 µM | HL-60 > 100 µM | NCI-H522 > 100 µM | A498 > 100 µM | SK-MEL-2 > 100 µM | K562 > 100 µM | 786-0 > 100 µM

Nc1c(C(=O)NC23CC4CC(CC(C4)C2)C3)[n+]([O-])c2ccccc2[n+]1[O-]
inactive: A549 > 100 µM | SNB-75 > 100 µM | CCRF-CEM > 100 µM | SF-295 > 100 µM | TK-10 > 100 µM | M14 > 100 µM | SN12C > 100 µM | HL-60 > 100 µM | SF-539 > 100 µM | NCI-H522 > 100 µM | A498 > 100 µM | SK-MEL-2 > 100 µM | K562 > 100 µM | 786-0 > 100 µM

CSc1nc(NC2OCC(OC(C)=O)C(OC(C)=O)C2OC(C)=O)c(/N=C(\C)C(C)=O)c(=O)n1C (stereo not drawn)
inactive: A549 > 100 µM | SNB-75 > 100 µM | CCRF-CEM > 100 µM | SF-295 > 100 µM | TK-10 > 100 µM | M14 > 100 µM | SN12C > 100 µM | HL-60 > 100 µM | SF-539 > 100 µM | A498 > 100 µM | SK-MEL-2 > 100 µM | K562 > 100 µM | 786-0 > 100 µM

Cc1ccc(Oc2ccc([N+](=O)[O-])cc2[N+](=O)[O-])c(C)c1
inactive: A549 34.1 µM | SNB-75 37.5 µM | CCRF-CEM 30.1 µM | SF-295 49.3 µM | TK-10 96.4 µM | M14 48.6 µM | SN12C 41.2 µM | HL-60 22.9 µM | SF-539 58.7 µM | A498 37.9 µM | SK-MEL-2 56.9 µM | K562 30.5 µM | 786-0 71.8 µM

COc1ccc(C2N3CCCCC3[C@@H]3c4[nH]c5ccccc5c4CCN23)c(OC)c1 (stereo partly drawn)
inactive: A549 40.8 µM | CCRF-CEM 26.9 µM | SF-295 42.3 µM | TK-10 25.2 µM | M14 16.8 µM | SN12C 18 µM | HL-60 18.2 µM | SF-539 18.5 µM | A498 15.5 µM | SK-MEL-2 14.6 µM | K562 26.7 µM | 786-0 33.7 µM

O=C1OC(c2ccccc2)=N/C1=C\c1cc(Cl)ccc1Cl
inactive: A549 > 100 µM | SNB-75 3.48 µM | CCRF-CEM 23.9 µM | SF-295 > 100 µM | M14 32.6 µM | SN12C 80.2 µM | HL-60 6.64 µM | SF-539 72.4 µM | NCI-H522 > 100 µM | A498 > 100 µM | SK-MEL-2 > 100 µM | K562 18.1 µM | 786-0 62.2 µM

C=CCn1cc(C(=O)NC(=O)NCCCCCOC(=O)CCCCCCCCCCC(=O)OCCCCCNC(=O)NC(=O)c2cn(CC=C)c(=O)n(C)c2=O)c(=O)n(C)c1=O
inactive: A549 > 100 µM | SNB-75 > 100 µM | CCRF-CEM > 100 µM | TK-10 > 100 µM | M14 > 100 µM | SN12C > 100 µM | HL-60 > 100 µM | SF-539 > 100 µM | NCI-H522 > 100 µM | A498 > 100 µM | SK-MEL-2 > 100 µM | K562 > 100 µM | 786-0 > 100 µM
